Experimental data reported in patent US20230002361A1, “2H-INDAZOLE DERIVATIVES AND THEIR USE IN THE TREATMENT OF DISEASE” (BIOGEN MA INC., priority 2019, published 2023).
Structures can show the parent of a compound that is named as a salt. Where two headings read alike, the source gives them in different places.

What was measured:
[1] = molecular target: T1, IRAK4 (Homo sapiens, UniProt Q9NWZ3); assay: IRAK4 MSD Biochemical Assay (1 mM ATP, 2 h); settings: room temperature
T1 construct: with 0.1 nM IRAK4, 1.6 μM of biotinylated peptide substrate and 10 μM ATP
T1 sequence (Q9NWZ3 1-460): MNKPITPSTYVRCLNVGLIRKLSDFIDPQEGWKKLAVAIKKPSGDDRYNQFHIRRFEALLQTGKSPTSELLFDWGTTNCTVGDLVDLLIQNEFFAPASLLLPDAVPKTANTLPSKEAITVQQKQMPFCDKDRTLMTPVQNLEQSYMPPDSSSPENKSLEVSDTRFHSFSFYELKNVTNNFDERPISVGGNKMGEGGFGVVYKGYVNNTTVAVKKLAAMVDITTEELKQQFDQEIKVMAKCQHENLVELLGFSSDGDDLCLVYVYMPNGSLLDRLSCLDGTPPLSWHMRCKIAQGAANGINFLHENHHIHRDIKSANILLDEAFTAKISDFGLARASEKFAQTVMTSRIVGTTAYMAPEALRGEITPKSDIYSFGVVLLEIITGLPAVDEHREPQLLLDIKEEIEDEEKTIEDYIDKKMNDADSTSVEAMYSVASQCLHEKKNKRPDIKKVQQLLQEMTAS
Procedure, shortened: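 Run with 1 mM ATP and […] for 2 h, then quenched with EDTA, pH 8. The phosphorylated biotinylated peptide was captured on streptavidin plates and detected with anti-phospho-threonine antibody plus Sulfo-Tag secondary by MSD electrochemiluminescence.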

[2] = molecular target: T2, MDR1 (P-gp) (Homo sapiens, UniProt P08183); assay: MDR1-MDCK assay (efflux ratio); assay type: in vitro ADME; settings: human, MDCK-MDR1, 1 μM compound, 120 minutes incubation; read-out: MDR1-MDCK Efflux Ratio; (B-A/A-B)
T2 construct: host or cells: MDCK cells
T2 sequence (P08183 whole entry): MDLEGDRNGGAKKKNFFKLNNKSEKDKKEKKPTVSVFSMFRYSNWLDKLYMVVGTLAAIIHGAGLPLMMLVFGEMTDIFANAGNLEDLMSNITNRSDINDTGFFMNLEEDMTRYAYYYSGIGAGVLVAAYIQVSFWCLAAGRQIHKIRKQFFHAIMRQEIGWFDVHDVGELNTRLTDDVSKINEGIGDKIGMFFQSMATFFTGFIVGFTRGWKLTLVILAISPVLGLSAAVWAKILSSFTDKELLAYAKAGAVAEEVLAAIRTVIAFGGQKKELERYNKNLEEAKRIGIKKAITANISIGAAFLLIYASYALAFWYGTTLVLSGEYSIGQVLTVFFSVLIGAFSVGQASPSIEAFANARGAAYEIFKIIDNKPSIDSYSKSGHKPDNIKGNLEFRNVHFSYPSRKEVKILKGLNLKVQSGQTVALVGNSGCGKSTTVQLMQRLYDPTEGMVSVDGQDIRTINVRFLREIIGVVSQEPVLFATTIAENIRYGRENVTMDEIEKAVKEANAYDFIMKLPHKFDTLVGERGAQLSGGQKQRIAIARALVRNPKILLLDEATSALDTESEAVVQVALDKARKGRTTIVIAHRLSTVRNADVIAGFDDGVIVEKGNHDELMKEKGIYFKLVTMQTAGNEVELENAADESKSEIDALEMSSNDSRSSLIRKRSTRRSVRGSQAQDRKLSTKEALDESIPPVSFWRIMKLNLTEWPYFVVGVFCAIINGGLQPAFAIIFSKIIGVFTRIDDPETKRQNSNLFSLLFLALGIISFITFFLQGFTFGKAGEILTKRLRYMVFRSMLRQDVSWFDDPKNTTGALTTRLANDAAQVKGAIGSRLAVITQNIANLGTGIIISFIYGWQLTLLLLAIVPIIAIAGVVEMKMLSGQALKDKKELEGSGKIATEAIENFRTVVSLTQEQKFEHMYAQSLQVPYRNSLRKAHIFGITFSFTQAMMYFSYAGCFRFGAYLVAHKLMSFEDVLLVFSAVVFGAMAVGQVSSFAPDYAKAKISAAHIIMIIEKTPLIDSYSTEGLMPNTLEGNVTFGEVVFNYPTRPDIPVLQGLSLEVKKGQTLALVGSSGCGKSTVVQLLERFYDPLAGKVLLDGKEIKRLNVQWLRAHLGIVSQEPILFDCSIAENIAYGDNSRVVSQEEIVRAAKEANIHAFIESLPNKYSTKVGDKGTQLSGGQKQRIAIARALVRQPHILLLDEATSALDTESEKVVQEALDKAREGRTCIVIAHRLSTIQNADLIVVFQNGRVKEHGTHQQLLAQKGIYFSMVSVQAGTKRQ
Procedure, shortened: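 Human MDR1-transfected MDCK monolayers, cultured 7 days on transwell inserts with TEER checked, were dosed with compound at 1 μM in HBSS-HEPES. Transport was measured in both A-B and B-A directions. Efflux ratio came from the directional permeabilities, with mass balance also calculated.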

[3] = read-out: IRAK4 MSD Biochemical Assay (1 mM ATP, 2 h) IC50

SMILES	IC50 [1, 3] [nM]	efflux ratio at 120 min, 1 μM [2]	IC50 ([1]; IRAK4 MSD Biochemical Assay (1 mM ATP, 2 h) IC50 (nM)) [nM]
COc1cccc(NC(=O)c2cc(OC)c3nn(CCC(C)(C)O)cc3c2)n1.Cl [Example 14, 2-(3-Hydroxy-3-methylbutyl)-7-methoxy-N-(6-methoxypyridin-2-yl)-2H-indazole-5-carboxamide hydrochloride]	247	24.4	
COCCCn1cc2cc(C(=O)Nc3cccc(C(F)F)n3)c(OC)cc2n1.Cl [Example 17, N-(6-(difluoromethyl)pyridin-2-yl)-6-methoxy-2-(3-methoxypropyl)-2H-indazole-5-carboxamide hydrochloride]	11.3	0.4	
CC(C)Oc1cc2nn(C34COC(C)(C3)C4)cc2cc1C(=O)Nc1cccn(C(F)F)c1=O [Example 91, N-(1-(difluoromethyl)-2-oxo-1,2-dihydropyridin-3-yl)-6-isopropoxy-2-(1-methyl-2-oxabicyclo[2.1.]hexan-4-yl)-2H-indazole-5-carboxamide tfifluoroacetate]		0.8	0.3
CC(C)Oc1cc2nn(C34CCC(C)(CC3)OC4)cc2cc1C(=O)Nc1cccn(C)c1=O [Example 58, 6-Isopropoxy-N-(1-methyl-2-oxo-1,2-dihydropyridin-3-yl)-2-(1-methyl-2-oxabicyclo[2.2.2]octan-4-yl)-2H-indazole-5-carboxamide Trifluoroacetate]	0.4	0.9	
CC(C)Oc1cc2nn(C3CCOCC3)cc2cc1C(=O)Nc1cccnc1OC(F)F.Cl [Example 70, N-(2-(difluoromethoxy)pyridin-3-yl)-6-isopropoxy-2-(tetrahydro-2H-pyran-4-yl)-2H-indazole-5-carboxamide hydrochloride]	8.7	1.1	
CC(C)Oc1cc2nn(C3CCOCC3)cc2cc1C(=O)Nc1cccn2nccc12.Cl [Example 71, 6-Isopropoxy-N-(pyrazolo[1,5-a]pyridin-4-yl)-2-(tetrahydro-2H-pyran-4-yl)-2H-indazole-5-carboxamide hydrochloride]	6.6	1.6	
CC12CCC(n3cc4cc(C(=O)Nc5ccn(C(F)F)n5)c(OC5CCC5)cc4n3)(CC1)CO2 [Example 139, 6-cyclobutoxy-N-(1-(difluoromethyl)-1H-pyrazol-3-yl)-2-(1-methyl-2-oxabicyclo[2.2.2]octan-4-yl)-2H-indazole-5-carboxamide]	0.9	0.8	
COc1cccc(NC(=O)c2cc3cn(CC45COC(C)(C4)C5)nc3cc2OC)n1.O=C(O)C(F)(F)F [Example 3, 6-Methoxy-N-(6-methoxypyridin-2-yl)-2-((1-methyl-2-oxabicyclo[2.1.1]hexan-4-yl)methyl)-2H-indazole-5-carboxamide trifluoroacetate]	10000	0.9	

The next lines start with results.

IC50 [1, 3] [nM]	efflux ratio at 120 min, 1 μM [2]	SMILES	IC50 ([1]; IRAK4 MSD Biochemical Assay (1 mM ATP, 2 h) IC50 (nM)) [nM]
0.4	1	CC(C)Oc1cc2nn([C@]34CC[C@](C)(C3)OC4)cc2cc1C(=O)Nc1cnn2cccnc12 (single isomer, unassigned) [Example 127]	
1.4	1.6	CC(C)Oc1cc2nn(C34COC(C)(C3)C4)cc2cc1C(=O)Nc1cnn2cc(F)cnc12 [Example 96, N-(6-fluoropyrazolo[1,5-a]pyrimidine-3-yl)-6-isopropoxy-2-(1-methyl-2-oxabicyclo[2.1.1]hexan-4-yl)-2H-indazole-5-carboxamide trifluoroacetate]	
0.5	1	CC(C)Oc1cc2nn(C34CCC(C)(C3)OC4)cc2cc1C(=O)Nc1cnn2cccnc12 (stereo not drawn) [Example 98, 6-Isopropoxy-2-(1-methyl-2-oxabicyclo[2.2.1]heptan-4-yl)-N-(pyrazolo[1,5-a]pyrimidin-3-yl)-2H-indazole-5-carboxamide]	
4.1	1.5	CC(C)Oc1cc2nn(C34CCC(C)(C3)OC4)cc2cc1C(=O)Nc1ccn(C)n1 (stereo not drawn) [Example 101, 6-Isopropoxy-N-(1-methyl-1H-pyrazol-3-yl)-2-(1-methyl-2-oxabicyclo[2.2.1]heptan-4-yl)-2H-indazole-5-carboxamide]	
